The record followed here is ChEMBL document CHEMBL1201862, “PubChem BioAssay data set” (2004).

SMILES strings stand for the structures.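 Five compound concentrations were applied to cells in 96-well plates for 48 hours; endpoints were derived by simple linear interpolation of the resulting dose-response curve. The concentration for 50% growth inhibition is given as GI50.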 The source made the active and inactive calls. No stated cut-off is given here; in the data, active = GI50 up to about 1.1 µM and inactive = higher.

Some test systems named below: MDA-MB-435; UACC-62; RXF 393; K562; DU-145; CAKI-1; MDA-MB-231; TK-10; HCC 2998; BT-549; NCI/ADR-RES; T47D; HCT-15; RPMI-8226; OVCAR-3; DLD-1; M19-MEL; DMS-273; SNB-78.
Holding throughout (assay): NCI anticancer screen, dose series, 48 h

With `Cc1c(N)nc([C@H](CC(N)=O)NC[C@H](N)C(N)=O)nc1C(=O)N[C@H](C(=O)N[C@H](C)[C@@H](O)CC(=O)N[C@H](C(=O)NC(O[C@@H]1O[C@@H](C)[C@@H](N)[C@@H](O)[C@H]1O)C(O)c1nc(-c2nc(C(=O)NCCCCN)cs2)cs1)[C@@H](C)O)[C@@H](O[C@@H]1O[C@@H](CO)[C@@H](O)[C@H](O)[C@@H]1O[C@H]1O[C@H](CO)[C@@H](O)[C@H](OC(N)=O)[C@@H]1O)c1c[nH]cn1` (stereo partly drawn), the GI50 in the assay with MDA-MB-435 was > 50 µM (inactive); in the assay on UACC-62, 11.9 µM (inactive); in the assay on RXF 393, 7.67 µM (inactive); in the assay on K562, > 50 µM (inactive); in the assay on DU-145, > 27.7 µM (inactive); with CAKI-1 it was 5.85 µM (inactive). Moreover, the GI50 is > 50 µM (inactive) in the assay on MDA-MB-231; > 50 µM (inactive) in the assay on TK-10; 0.134 µM (active) in the assay with HCC 2998; > 50 µM (inactive) in the assay with BT-549; 7.89 µM (inactive) in the assay on NCI/ADR-RES; > 50 µM (inactive) with T47D. Moreover, the GI50 in the assay on HCT-15 is over 32.2 µM; with RPMI-8226, > 50 µM (inactive); in the assay with OVCAR-3, > 48.1 µM (inactive).
Turning to `Cc1[nH]c(-c2ccccc2)c(O)c1C(=O)OC1CC(C)CCC1C(C)C` (stereo not drawn), the GI50 in the assay with MDA-MB-435 was 14.8 µM (inactive); with UACC-62 it was 16.5 µM (inactive); in the assay with RXF 393, 11.7 µM (inactive); in the assay with K562, 50 µM (inactive); with DU-145, 15.8 µM (inactive); in the assay with CAKI-1 it was 17.7 µM (inactive). Besides, the GI50 with MDA-MB-231 was 15.5 µM (inactive); with BT-549, 18.4 µM (inactive); in the assay on NCI/ADR-RES, 14.7 µM (inactive); in the assay with T47D, 13.7 µM (inactive); in the assay on HCT-15 it was 17.8 µM; with RPMI-8226, 15.3 µM (inactive). Moreover, the GI50 with OVCAR-3 was 12.7 µM (inactive).
Consider `O=[N+]([O-])/C(C(Cl)=C(Cl)Cl)=C1\Nc2ccccc2O1`, for which the GI50 in the assay on MDA-MB-435 is 36.6 µM (inactive); with UACC-62, 9.16 µM (inactive); in the assay with RXF 393, > 100 µM (inactive); in the assay on K562 it was > 100 µM (inactive); in the assay on DU-145, > 100 µM (inactive); with CAKI-1 it was > 100 µM (inactive). The GI50 in the assay on MDA-MB-231 was 44.3 µM (inactive); with TK-10, > 100 µM (inactive); in the assay on HCC 2998, > 100 µM (inactive); with T47D, > 100 µM (inactive); in the assay with HCT-15 it was over 100 µM; with RPMI-8226, 24.3 µM (inactive). Moreover, the GI50 in the assay with OVCAR-3 is 23.4 µM (inactive).
Turning to `Nc1nc(Cl)cc(NCCCCO)n1`, the GI50 with DLD-1, in the assay on UACC-62, with RXF 393, in the assay with K562, in the assay with M19-MEL and in the assay on TK-10 was > 100 µM (inactive) each time. Besides, the GI50 in the assay on HCC 2998 was > 100 µM (inactive); in the assay on DMS-273, > 100 µM (inactive); in the assay with SNB-78, 15.9 µM (inactive); with HCT-15, over 100 µM; in the assay with RPMI-8226, > 100 µM (inactive); in the assay on OVCAR-3, > 10 µM (inactive).
As to `Nc1nc(SCCc2ccccc2)nc2nc3c(c(-c4ccccc4)c12)CCCC3`, the GI50 in the assay with MDA-MB-435 was > 100 µM (inactive); in the assay on UACC-62, > 100 µM (inactive); in the assay on RXF 393 it was 24.3 µM (inactive); in the assay on K562, > 100 µM (inactive); in the assay with DU-145 it was > 100 µM (inactive); in the assay on CAKI-1, > 100 µM (inactive). Also, the GI50 in the assay with MDA-MB-231 is > 100 µM (inactive); in the assay on TK-10, > 100 µM (inactive); with BT-549 it was 42 µM (inactive); in the assay with NCI/ADR-RES it was > 100 µM (inactive); with T47D it was > 100 µM (inactive); in the assay with HCT-15, over 100 µM. The GI50 in the assay on RPMI-8226 and in the assay on OVCAR-3 was > 100 µM (inactive) each time.
On to `Cc1cc([N+](=O)[O-])ccc1/N=N/C(=O)NNc1ccc([N+](=O)[O-])cc1C`, for which the GI50 was 12.8 µM (inactive) in the assay on MDA-MB-435; 13.5 µM (inactive) in the assay on UACC-62; 19.5 µM (inactive) with K562; 16.5 µM (inactive) in the assay with DU-145; 14.8 µM (inactive) in the assay on CAKI-1; > 10 µM (inactive) in the assay with MDA-MB-231. The GI50 is 16.7 µM (inactive) in the assay with TK-10; 16 µM (inactive) in the assay on HCC 2998; 11.6 µM (inactive) in the assay with BT-549; 15.3 µM (inactive) in the assay on T47D; 19.1 µM in the assay with HCT-15; 21.3 µM (inactive) in the assay on RPMI-8226. Also, in the assay on OVCAR-3, the GI50 was 18.8 µM (inactive).
For `CCOC(=O)CC1(c2cccc3ccccc23)OC(=O)c2ccccc21` (stereo not drawn), the GI50 with DLD-1 is 8.69 µM (inactive); in the assay on UACC-62, 57.7 µM (inactive); in the assay with RXF 393 it was 16.3 µM (inactive); with K562, 37.9 µM (inactive); in the assay with M19-MEL, 48.5 µM (inactive); in the assay on CAKI-1, 57.7 µM (inactive). Also, the GI50 with TK-10 was 80 µM (inactive); in the assay with HCC 2998, 62.5 µM (inactive); with DMS-273 it was 41.7 µM (inactive); in the assay on SNB-78, 66.4 µM (inactive); in the assay on HCT-15 it was 35.5 µM; in the assay on RPMI-8226, 23.7 µM (inactive). The GI50 in the assay on OVCAR-3 was 33.6 µM (inactive).
In the case of `COC(C[C@H]1CCCC[C@]1(O)/C(=C\CO[Si](C(C)C)(C(C)C)C(C)C)Sc1ccccc1)OC`, the GI50 in the assay on MDA-MB-435 is 33 µM (inactive); with UACC-62, > 100 µM (inactive); with RXF 393, 16.1 µM (inactive); with K562 it was 31.3 µM (inactive); in the assay on DU-145, 40.1 µM (inactive); with CAKI-1, 32.4 µM (inactive). Moreover, the GI50 was 18.9 µM (inactive) in the assay with MDA-MB-231; > 100 µM (inactive) with TK-10; 16.5 µM (inactive) with HCC 2998; 87.3 µM (inactive) in the assay on NCI/ADR-RES; 12.6 µM (inactive) with T47D; 21.8 µM in the assay with HCT-15. For the same compound, in the assay on RPMI-8226, the GI50 is 15.5 µM (inactive).
Consider `CC(Oc1ccc(Cl)cc1Cl)C(=O)NN1C(=O)CC(=O)NC1=S` (stereo not drawn), for which the GI50 in the assay on MDA-MB-435 is > 100 µM (inactive); with UACC-62, 36.5 µM (inactive); in the assay on RXF 393, > 100 µM (inactive); in the assay on K562 it was > 100 µM (inactive); with DU-145 it was > 100 µM (inactive); in the assay with CAKI-1, 82 µM (inactive). Also, the GI50 in the assay on MDA-MB-231 is > 100 µM (inactive); with TK-10 it was > 100 µM (inactive); with HCC 2998 it was > 100 µM (inactive); with BT-549, > 100 µM (inactive); in the assay with NCI/ADR-RES, > 100 µM (inactive); in the assay with T47D, 31.8 µM (inactive). Besides, the GI50 is 86.9 µM in the assay on HCT-15, 46 µM (inactive) in the assay on RPMI-8226 and > 100 µM (inactive) in the assay with OVCAR-3.
For `O=C(NC(Cc1ccc(I)cc1)C(=O)O)c1cccc(Br)c1` (stereo not drawn), the GI50 is > 100 µM (inactive) in the assay on DLD-1; 50.6 µM (inactive) in the assay with UACC-62; 48.6 µM (inactive) in the assay on K562; 56.2 µM (inactive) with M19-MEL; > 100 µM (inactive) in the assay on CAKI-1; 22.4 µM (inactive) in the assay with HCC 2998. Moreover, the GI50 was 99.5 µM (inactive) in the assay with NCI/ADR-RES; > 100 µM (inactive) in the assay on DMS-273; > 100 µM (inactive) in the assay on SNB-78; over 100 µM in the assay on HCT-15; 47.8 µM (inactive) in the assay on RPMI-8226; 54.6 µM (inactive) with OVCAR-3.
For `CON(C)c1nc(N)c(C#N)c(C#N)c1C#N`, the GI50 in the assay with MDA-MB-435, in the assay on UACC-62, in the assay on RXF 393, in the assay on DU-145, with CAKI-1 and with MDA-MB-231 was > 10 µM (inactive) throughout. Further, the GI50 in the assay on TK-10 was > 10 µM (inactive); in the assay with HCC 2998, > 10 µM (inactive); with NCI/ADR-RES, > 10 µM (inactive); in the assay on T47D, > 10 µM (inactive); with HCT-15, over 10 µM; in the assay on RPMI-8226, > 10 µM (inactive). In addition, the GI50 in the assay on OVCAR-3 is 2.28 µM (inactive).
`O=P(Nc1ccc(Cl)cc1)(Oc1ccccc1)N(CCCl)CCCl` (stereo not drawn): the GI50 with DLD-1, in the assay with UACC-62, with K562, with M19-MEL, with CAKI-1 and in the assay on TK-10 was > 100 µM (inactive) each time. The GI50 with HCC 2998 is > 100 µM (inactive); with DMS-273 it was > 100 µM (inactive); in the assay with SNB-78, > 100 µM (inactive); in the assay on HCT-15, over 100 µM; with OVCAR-3, > 100 µM (inactive).
In the case of `COn1oc(=O)c2ccccc21`, the GI50 with MDA-MB-435, in the assay on UACC-62, in the assay with RXF 393, in the assay with K562, with DU-145 and in the assay on CAKI-1 was > 100 µM (inactive) each time. In addition, the GI50 with MDA-MB-231 is > 100 µM (inactive); with TK-10, > 100 µM (inactive); in the assay on HCC 2998, > 100 µM (inactive); in the assay on BT-549, > 100 µM (inactive); in the assay with NCI/ADR-RES, > 100 µM (inactive); in the assay on HCT-15, over 100 µM. The GI50 with RPMI-8226 and in the assay on OVCAR-3 was > 100 µM (inactive) throughout.
As to `O=C1C[C@H](c2ccccc2)C2(C(=O)c3ccccc3C2=O)[C@H](c2ccccc2)C1`, the GI50 in the assay on MDA-MB-435 is > 100 µM (inactive); with UACC-62, 79.1 µM (inactive); with RXF 393, 12.1 µM (inactive); in the assay on K562, > 100 µM (inactive); in the assay on DU-145, 75 µM (inactive); in the assay with CAKI-1 it was > 100 µM (inactive). Also, the GI50 in the assay on MDA-MB-231 was 9.42 µM (inactive); with HCC 2998 it was > 100 µM (inactive); in the assay on BT-549, 86.9 µM (inactive); in the assay on NCI/ADR-RES, > 100 µM (inactive); in the assay with T47D, > 100 µM (inactive); with HCT-15 it was over 100 µM. Also, the GI50 in the assay with RPMI-8226 and with OVCAR-3 was > 100 µM (inactive) each time.
As for `C/C(=C\c1ccccc1)n1c(=O)cc(C)n1C`, the GI50 in the assay with MDA-MB-435, with UACC-62, in the assay with RXF 393, in the assay on K562, with DU-145 and with CAKI-1 was > 100 µM (inactive) in each case. Moreover, the GI50 in the assay on TK-10, with HCC 2998, in the assay with BT-549, in the assay on NCI/ADR-RES, in the assay with T47D and with RPMI-8226 was > 100 µM (inactive) throughout. The GI50 in the assay with OVCAR-3 is > 100 µM (inactive).
